Test results published in US20060199857A1, “Therapeutic agents” (ASTRAZENECA UK LIMITED, priority 2003, published 2006).

Target: T1, human PPAR alpha (Homo sapiens, UniProt Q07869)
T1 sequence (Q07869 1-468): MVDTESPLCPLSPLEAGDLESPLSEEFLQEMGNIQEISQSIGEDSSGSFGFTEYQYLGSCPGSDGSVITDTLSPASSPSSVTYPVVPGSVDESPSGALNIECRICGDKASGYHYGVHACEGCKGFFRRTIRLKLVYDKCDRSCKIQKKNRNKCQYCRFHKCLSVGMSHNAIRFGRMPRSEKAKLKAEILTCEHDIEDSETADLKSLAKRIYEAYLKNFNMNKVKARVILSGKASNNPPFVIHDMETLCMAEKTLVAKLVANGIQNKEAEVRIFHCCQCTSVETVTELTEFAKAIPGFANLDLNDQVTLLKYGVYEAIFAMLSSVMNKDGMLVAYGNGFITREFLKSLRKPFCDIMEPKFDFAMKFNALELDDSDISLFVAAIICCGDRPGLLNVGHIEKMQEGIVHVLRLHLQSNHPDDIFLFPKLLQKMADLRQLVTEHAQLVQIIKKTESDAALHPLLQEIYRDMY
Experiment: PPAR alpha assay as described in WO03/051821
Format: cell-based
Conditions: assay described in WO03/051821 (incorporated by reference)
Experimental: The compounds of the invention were tested in the assays described in WO03/051821 which is incorporated herein by reference.

In the case of `O=C(c1ccccc1)c1ccc(OCCc2ccc(CC(SCCc3ccc(O)cc3)C(=O)O)cc2)cc1` (stereo not shown) [Example 7, 3-{4-[2-(4-Benzoylphenoxy)ethyl]phenyl}-2-{[2-(4-hydroxyphenyl)ethyl]thio}propanoic acid], the EC50 is reported as 780 nM.
